Our source for the IC50, antiasthmatic effect and PGDS inhibition values is patent US8202863B2 (Aventis Pharmaceuticals Inc., priority 2005, dated 2012).

The term IC50 denotes the midpoint of a concentration-inhibition curve. Read a high IC50 as weaker potency in that assay.

T1 sequence (O60760 whole entry): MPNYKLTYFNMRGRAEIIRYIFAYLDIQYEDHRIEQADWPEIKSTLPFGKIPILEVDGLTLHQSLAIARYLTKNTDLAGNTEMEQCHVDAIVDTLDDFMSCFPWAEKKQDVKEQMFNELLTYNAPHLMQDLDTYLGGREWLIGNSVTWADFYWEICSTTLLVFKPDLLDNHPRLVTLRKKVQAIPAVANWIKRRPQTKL

The first test has as its target T1, Hematopoietic PGD2 Synthase (Homo sapiens, UniProt O60760). In words: Fluorescence Polarization Assay (Assay 1). The test is classed as binding. The note with it: assigned. The source says: (§1) The compounds of the present invention can be tested for enzymatic inhibiting activity against PGD2 Synthase according to either one of the following assays.
(§2) Assay 1: Fluorescence Polarization Assay
(§3) As described in PCT publication WO 2004/016223, Example II.
As to `O=C(NCCc1c[nH]cn1)c1cnc(-c2ccccc2)nc1` [Example 34, 2-Phenyl-pyrimidine-5-carboxylic acid [2-(1H-imidazol-4-yl)-ethyl]-amide], half-maximal inhibition (IC50) required 0.035 µM. In the case of `O=C(Nc1ccc2[nH]ncc2c1)c1cnc(-c2ccccc2)nc1` [Example 83, 2-Pheny-pyrimidine-5-carboxylic acid (1H-indazol-5-yl)-amide], the IC50 is 0.023 µM. In turn, `O=C(NCc1ccc(-c2cnns2)cc1)c1cnc(-c2ccccc2)nc1` [Example 84] registered an IC50 of 0.0065 µM. Regarding `O=C(NCCc1ccc2c(c1)OCO2)c1cnc(-c2ccccc2)nc1` [Example 82, 2-Phenyl-pyrimidine-5-carboxylic acid (2-benzo[133]dioxol-5-yl-ethyl)-amide], the IC50 came to 0.002 µM. On the same count and under the same terms, the same measure for `O=C(Nc1ccccc1)c1cnc(C2CCCCC2)nc1` [Example 114, 2-Cyclohexyl-pyrimidine-5-carboxylic acid phenylamide]: 4.96 µM; for `O=C(Nc1ccc2c(c1)CS(=O)(=O)N2)c1cnc(-c2ccccc2)nc1` [Example 8, 2-Phenyl-pyrimidine-5-carboxylic acid (2,2-dioxo-2,3-dihydro-1H-2lamda*6*-benzo[c]isothiazol-5-yl)-amide]: 0.0025 µM; for `O=C(NC1CCN(Cc2ncc[nH]2)CC1)c1cnc(-c2ccccc2)nc1` [Example 9]: 0.002 µM. In turn, `O=C(NCCN1CCNC1=O)c1cnc(-c2ccccc2)nc1` [Example 33, 2-Phenyl-pyrimidine-5-carboxylic acid [2-(2-oxo-imidazolidin-1-yl)-ethyl]-amide] displayed a 50% inhibitory concentration (IC50) of 0.032 µM.

For another test, the target named is T1, Hematopoietic PGD2 Synthase. Description: Fluorescence Polarization Assay or EIA assay (which one not stated). The note with it: assay not assigned in b678 (Fluorescence Polarization or EIA). In kind it is biochemical. The protocol: as §1, §2, §3
Assay 2: Enzyme Immunoassay (EIA) Method
• 2. Dilute 2 μL of each above concentration of compound to 38 μL of reaction buffer in 96-well plates and mix. IV. Enzyme and Substrate Solution Preparation • 1. Preparation of 0.39 ng/μL enzyme solution (0.35 ng/μL at final after compound addition). • Mix 4 μL of 4 mg/mL human h-PGDS with 396 μL of reaction buffer (to give enzyme concentration 40 μg/mL). Add 46.8 μL of 40 μg/mL h-PGDS to 4.753 mL of reaction buffer to give a total volume of 4.8 mL • 2. Preparation of Substrate Solution (PGH2): Add 0.375 mL of 0.1 mg/mL of PGH2 to 1.625 mL acetone. V. Enzyme Reaction: • 1. Add 60 μL of enzyme solution to compound well and positive control (without compound) in U-bottom polypropylene plate on ice. • 2. Add 60 μL of reaction buffer and 6.6 μL of 5% DMSO in reaction buffer into negative control wells in the plate. • 3. Add 6.6 μL of diluted compound in reaction buffer to the compound wells and mix. • 4. Add 6.6 μL of 5% DMSO in reaction buffer to the positive control well. • 5. Incubate the plate in ice for at least 30 min. • 6. Add 20 μL of substrate (PGH2) solution to compound, negative and positive control wells in the U-bottom 96 well plate on ice. • 7. Dry the plate in cold room for about 25-28 min. • 8. Pipette 45 μL of enzyme solution (above) into 96-wells with dried PGH2 and mix 3 times. Incubate on the ice for 1 min. • 9. Add 45 μL of FeCl2 solution into each wells and mix. • 10. Add 90 μL of MOX solution and mix. • 11. Incubate for 30 min at 60° C. • 12. Dilute the samples 2500× with EIA buffer. VI. EIA assay • Perform the assay according to the procedure in EIA kit provided by Cayman. Total PGD2 levels (pg/mL) were determined in the samples by EIA kits (Caymen Chemical, Catalog No. 500151) Calculate amount of PGD2 as below • Calculated % Positive control according to the equation below; % Positive control=(Compound value−Negative control)/(Positive value-Negative control value)×100. % Positive control=(Compound value-Negative control)×100(Positive Value-Negative Control Value) • Compound value=PGD2 levels (pg/mL) obtained from the standard curve in EIA assay for the samples with compound • Negative control value=PGD2 levels (pg/mL) obtained from the standard curve in EIA assay for the samples without enzyme • Positive control value=PGD2 levels (pg/mL) obtained from the standard curve in EIA assay for the samples with enzyme but without compound • IC50s are determined by excel fit to get the x value when y=½Ymax using 4 parameter logistic model for the IC50 curves. Results
(In general: In fluorescence polarisation assays a small probe gives low polarisation when free and higher when bound to something large.)
In turn, `CCOP(=O)(Cc1ccc(NC(=O)c2cnc(-c3ccccc3)nc2)cc1)OCC` [Example 98] came in with an IC50 of 0.038 µM. As to `O=C(NCc1ccc(N2CCOCC2)cc1)c1cnc(-c2ccccc2)nc1` [Example 87, 2-Pheny-pyrimidine-5-carboxylic acid 4-morpholin-4-ylbenzylamide], the IC50 was found to be 0.012 µM. In the case of `O=C(NCc1ccc2occc2c1)c1cnc(-c2ccccc2)nc1` [Example 90, 2-Pheny-pyrimidine-5-carboxylic acid (benzofuran-5-ylmethyl)-amide], the IC50 is 0.007 µM. Regarding `Cc1nc(-c2ncc(C(=O)NC3CCOCC3)cn2)no1` [Example 77, 2-(5-Methyl-[1,2,4]oxadiazole-3-yl)-pyrimidine-5-carboxylic acid (tetrahydro-pyran-4-yl)-amide], the midpoint of inhibition, the IC50, lay at 0.514 µM. `O=C(NCc1cccc(S(=O)(=O)NCCc2c[nH]cn2)c1)c1cnc(-c2cccc(F)c2)nc1` [Example 60, 2-(3-Fluoro-phenyl)-pyrimidine-5-carboxylic acid 3-[2-(1H-imidazol-4-yl)-ethylsulfamoyl]-benzylamide]: the IC50 came to 0.061 µM. On the same count and under the same terms, the same measure for `CCOP(=O)(OCC)C(NC(=O)c1cnc(-c2ccccc2)nc1)c1ccccc1` (stereo not drawn) [Example 101, {Phenyl-[(2-phenyl-pyrimidine-5-carbonyl)-amino]-methyl)-phosphonic acid diethyl ester]: 0.048 µM; for `CCOP(=O)(CCCCNC(=O)c1cnc(-c2ccccc2)nc1)OCC` [Example 99, {4-[(2-Phenyl-pyrimidine-5-carbonyl)-amino]-butyl)-phosphonic acid diethyl ester]: 0.0235 µM; for `O=C(Nc1cc[nH]c(=O)n1)c1cnc(-c2ccccc2)nc1` [Example 29, 2-Phenyl-pyrimidine-5-carboxylic acid (2-oxo-1,2-dihydro-pyrimidin-4-yl)-amide]: 0.015 µM. On the same count and under the same terms, the same measure for `NC(=O)c1ccc(CNC(=O)c2cnc(-c3ccccc3)nc2)cc1` [Example 92, 2-Pheny-pyrimidine-5-carboxylic acid 4-carbamoyl-benzylamide]: 0.016 µM; for `O=C(Nc1ccc2nc(CCN3CCCC3)oc2c1)c1cnc(-c2ccccc2)nc1` [Example 11, 2-Phenyl-pyrimidine-5-carboxylic acid [2-(2-pyrrolidin-1-yl-ethyl)-benzooxazol-6-yl]-amide]: 0.018 µM.

For a further test, the system named is guinea pig.
Assay: not given
The note with it: guinea pig model; cited from earlier work.
As to `c1ccc(C(OC2CCN(CCCc3nn[nH]n3)CC2)c2ccccc2)cc1` [HQL-79], the antiasthmatic effect result is recorded as “antiasthmatic”.

The next test relates to rat.
Assay: not given
The settings on record: rat model; cited from earlier work.
Take `c1ccc(C(OC2CCN(CCCc3nn[nH]n3)CC2)c2ccccc2)cc1` [HQL-79]: the antiasthmatic effect entry was “antiasthmatic”.

In another test the test system is PGDS.
Assay: not given
The note with it: literature report; cited from earlier work.
Consider `c1ccc(C(OC2CCN(CCCc3nn[nH]n3)CC2)c2ccccc2)cc1` [HQL-79], for which the PGDS inhibition result was “weak PGDS inhibitor”.
